In US20080113900A1, “Pharmaceutical compositions and therapeutic applications for the use of a synthetic vitamin B12 derivative, glutathionylcobalamin” (priority 2006, published 2008):
Where “and” joins values, the source holds several entries; their conditions need not be identical. Identical values can stand only once.

What was measured:
methionine synthase = target: T1, methionine synthase (Oryctolagus cuniculus, UniProt G1SXW3); conditions: rabbit spleen extracts; cited from earlier work
T1 construct: methionine synthase activity in rabbit spleen extracts; from tissue; host or cells: rabbit spleen extract
T1 sequence (G1SXW3 1-1218): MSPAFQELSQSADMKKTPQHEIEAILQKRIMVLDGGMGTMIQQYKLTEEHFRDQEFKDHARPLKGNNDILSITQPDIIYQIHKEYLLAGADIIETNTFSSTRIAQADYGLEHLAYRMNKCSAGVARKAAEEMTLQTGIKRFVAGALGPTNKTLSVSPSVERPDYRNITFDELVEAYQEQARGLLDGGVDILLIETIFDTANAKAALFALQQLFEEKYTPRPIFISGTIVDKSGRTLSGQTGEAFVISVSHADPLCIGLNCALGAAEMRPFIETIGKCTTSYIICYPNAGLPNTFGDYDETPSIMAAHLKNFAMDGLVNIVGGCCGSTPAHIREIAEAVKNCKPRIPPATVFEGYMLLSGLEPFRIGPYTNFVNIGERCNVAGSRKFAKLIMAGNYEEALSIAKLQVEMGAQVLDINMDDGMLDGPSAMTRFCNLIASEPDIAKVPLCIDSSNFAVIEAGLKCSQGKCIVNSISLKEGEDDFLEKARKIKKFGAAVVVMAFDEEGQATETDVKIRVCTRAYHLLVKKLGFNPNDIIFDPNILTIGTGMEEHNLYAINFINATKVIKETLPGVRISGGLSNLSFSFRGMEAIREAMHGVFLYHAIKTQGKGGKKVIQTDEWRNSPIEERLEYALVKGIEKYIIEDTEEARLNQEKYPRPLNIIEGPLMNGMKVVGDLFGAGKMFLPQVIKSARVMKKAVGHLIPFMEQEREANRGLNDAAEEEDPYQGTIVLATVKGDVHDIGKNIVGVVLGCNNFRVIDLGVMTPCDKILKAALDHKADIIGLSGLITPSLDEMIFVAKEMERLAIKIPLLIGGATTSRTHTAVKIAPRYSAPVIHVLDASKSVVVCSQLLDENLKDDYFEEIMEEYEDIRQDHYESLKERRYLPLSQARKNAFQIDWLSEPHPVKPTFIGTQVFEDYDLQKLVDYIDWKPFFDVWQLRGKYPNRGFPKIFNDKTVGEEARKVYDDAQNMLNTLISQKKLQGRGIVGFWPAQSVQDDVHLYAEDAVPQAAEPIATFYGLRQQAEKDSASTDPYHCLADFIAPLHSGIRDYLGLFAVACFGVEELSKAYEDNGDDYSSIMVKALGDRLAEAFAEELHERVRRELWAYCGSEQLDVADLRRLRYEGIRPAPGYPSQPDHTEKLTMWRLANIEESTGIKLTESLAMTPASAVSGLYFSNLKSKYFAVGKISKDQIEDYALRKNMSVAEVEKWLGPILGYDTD

SK-HEP-1 cells [1] = experiment: Protection from homocysteine-induced apoptosis, Caspase-3 activity (apoptosis assay); type: cell-based, human; conditions: 30 μM two hours, then 30 μM homocysteine two hours
Method: Caspase 3 is activated when cells undergo apoptosis. Caspase-3 assay is a standard for apoptosis assay. Homocysteine is a known inducer of apoptosis. Cells were cultured in 96-well plates for 24 hours and then treated with reagents under test conditions. Cytotoxic agents, H2O2 and etoposide were added to negative control wells. The assay was performed according to the manufacturer's protocol, as follows: Cells were re-suspended in 100 μl of clear media and 50 μl of Caspase-3 substrate solution was immediately added to each test well. […] Cell viability was determined by MTS® assay. […] Cell viability was determined by MTS® assay.

SK-HEP-1 cells [2] = experiment: Effect of high concentrations of NACCbl and GSCbl on SK-HEP-1 cells (MTS assay, 24 hours); type: cell-based, human; conditions: for Cell viability by MTS assay (FIG. 13): SK-HEP-1, 3 replicates
Hsp32 = Hsp32 gene expression (RT-PCR, densitometry); type: cell-based, human; conditions: SK-HEP-1; Sn (IX) protoporphyrin 25 μM; Quercitin 15 μM
Method: Cells were plated into 6-, 12-, or 24-well cell culture clusters, at 2×10^3, 2×10^5, or 1×10^5 cells per well and incubated until 90% confluent. Treatments were applied as above.
Following incubation, cells were subjected to mRNA extraction followed by cDNA synthesis for each sample under test. Polymerase chain reaction cDNA templates were prepared for simplex PCR protocol. PCR products were then visualized using a UV Transilluminator and images captured using a Kodak ID gel imaging system. Densitometry and statistical analysis was then performed on each gene expression band image using PSP® v 10.0 running under Windows XP®.
mRNA extraction was performed using the Quickprep micro mRNA Purification Kit. Following incubation of cells post-treatment, the media was removed from the cells, adherent cells were re-suspended in 0.4 ml extraction buffer and 0.8 ml elution buffer at 65° C. was added.
A reaction mixture was prepared in individual microcentrifuge tubes containing 2 cDNA synthesis beads, 32 μl of the mRNA solution and 1 μl of pd(N)6. This mixture was incubated at 37° C. in a water bath for 60 minutes. After incubation, 27 μl of RNase-free DEPC treated water was added to each tube to make a total volume 60 μl. cDNA samples were prepared in duplicate. Sample 1 was used immediately in RT-PCR protocol. Sample 2 was prepared for qPCR protocol by the addition of 150 μl of 95% ice-cold ethanol and stored at −20° C.
Microcentrifuge tubes from puReTaq™Ready-To-Go™ PCR Beads containing one PCR bead were labeled for each sample required. Added to the PCR bead were 17 μl of RNase-free DEPC treated water, 1 μl sense primer, 1 μl anti-sense primer and 5 μl of the cDNA solution. RT-PCR conditions were as follows: Hsp70 and β-actin, pre-treatment step, 94° C. for 1 minute, followed by denaturing at 92° C. for 1 minute, annealing at 60° C. for 1 minute and extension at 72° C. for 1 minute. Total cycles, 30, post-treatment was then carried out at 72° C. for 10 minutes. For Hsp32, pre-treatment step, 95° C. for 2 minutes, followed by denaturing at 94° C. for 30 seconds, annealing at 58° C. for 1 minute and extension at 72° C. for 1 minute. Total cycles 45, post treatment was then carried out at 72° C. for 10 minutes. Following RT-PCR, samples were stored at −20° C.
Gels were visualised on a UV Transilluminator. Photographs were stored using a Kodak Digital camera system fitted with a UV filter set connected to a PC. Images were then transferred to the Kodak ID gel imaging system. Densitometry was performed on each gene expression band using PSP™ v10 running under Windows XP®.
Experiments were conducted using Hsp32 and Hsp 70 gene expression as the basis for study. […] The densitometric data are presented as means ±SEM of n=3 separate experiments. *p<0.05 or **p<0.01, treatment vs. control.

SK-HEP-1 cells [3] = experiment: Protection of endothelial cells from homocysteine-induced cell death (MTS assay); type: cell-based, human
Method: The effect of a constant concentration of NACCbl and GSCbl to protect cells against variable concentrations of homocysteine was assessed. […] Cell viability was determined by MTS® assay. Data shown in FIG. 4 are representative of means ±SE of 6 independent samples. FIG. 4 illustrates that NACCbl (▪) and GSCbl (▴) protect endothelial cells from the effect of homocysteine. […] Cell viability was determined by MTS® assay. […] There was a decrease in protection as homocysteine concentration increased, but there was still ˜60% survival at 50 μM homocysteine.
The data was normalized (log 2 and log 10) as shown in FIGS. 16 and 17 and Tables 16 and 17, respectively, below.

[4] = Decomposition in PBS at 37° C. monitored by UV/Vis spectrophotometry; type: physicochemical
Method: The decomposition of GSCbl, NACCbl, and HcyCbl in PBS at 37° C. was monitored by UV/Vis spectrophotometry.

SK-HEP-1 cells [5] = experiment: Protection of endothelial cells from H2O2-induced cell death (MTS assay); type: cell-based, human; design: key to Cell viability (MTS assay): cell viability as % survival; conditions: for Cell viability (MTS assay): SK-HEP-1, n = 6 replicates
Method: The effect of increasing concentrations of NACCbl and GSCbl to protect endothelial cells from the effect of H2O2 was assessed. […] Cell viability was determined by MTS® assay. […] FIG. 3 illustrates that NACCbl and GSCbl protect endothelial cells from the effect of H2O2. […] Cell viability was determined by MTS® assay. […] There was no difference between the protection afforded by NACCbl and that by GSCbl. Both required 100 μM to achieve >80% survival.

SK-HEP-1 cells [6] = experiment: as above; type: cell-based, human; design: key to Cell viability (MTS assay): cell viability as % survival; conditions: SK-HEP-1, n = 6 replicates
SK-HEP-1 cells [7] = experiment: Effect of homocysteine and H2O2 on endothelial cell viability (MTS assay); conditions: for Cell viability (MTS assay): SK-HEP-1, 2 hours, n = 6 replicates
SK-HEP-1 cells [8] = conditions: 12.5 µM
in vitro = conditions: human, SK-HEP-1 cells

C/C1=C2N=C(/C=C3N=C(/C(C)=C4\[N-]C(C(CC(N)=O)C4(C)CCC(=O)NCC(C)OP(=O)([O-])OC4C(CO)OC(n5cnc6cc(C)c(C)cc65)C4O)C4(C)N=C1C(CCC(N)=O)C4(C)CC(N)=O)C(CCC(N)=O)C\3(C)C)C(CCC(N)=O)C/2(C)CC(N)=O.NC(CCC(=O)NC(C[S-])C(=O)NCC(=O)O)C(=O)O.[Co+3] (centres unmarked) [GSCbl, Glutathionylcobalamin]
Promotion of methionine synthase activity (methionine synthase): more active than other cobalamins
Protection against apoptosis induced by homocysteine (SK-HEP-1 cells [1]): total protection
Cell viability by MTS assay (FIG. 13) (SK-HEP-1 cells [2]; compound conc. 0.61, 24 hours): 2.554 and 2.376 and 2.53
Cell viability by MTS assay (FIG. 13) (SK-HEP-1 cells [2]; compound conc. 1.22, 24 hours): 2.347 and 2.433 and 2.503
Cell viability by MTS assay (FIG. 13) (SK-HEP-1 cells [2]; compound conc. 2.441, 24 hours): 2.527 and 2.434 and 2.46
Cell viability by MTS assay (FIG. 13) (SK-HEP-1 cells [2]; compound conc. 4.882, 24 hours): 2.543 and 2.528 and 2.519
Cell viability by MTS assay (FIG. 13) (SK-HEP-1 cells [2]; compound conc. 9.765, 24 hours): 2.532 and 2.476 and 2.42
Cell viability by MTS assay (FIG. 13) (SK-HEP-1 cells [2]; compound conc. 19.531, 24 hours): 2.553 and 2.476 and 2.42
Cell viability by MTS assay (FIG. 13) (SK-HEP-1 cells [2]; compound conc. 39.062, 24 hours): 2.492 and 2.484 and 2.468
Cell viability by MTS assay (FIG. 13) (SK-HEP-1 cells [2]; compound conc. 78.125, 24 hours): 2.444 and 2.406 and 2.402
Cell viability by MTS assay (FIG. 13) (SK-HEP-1 cells [2]; compound conc. 156.25, 24 hours): 2.407 and 2.37 and 2.318
Cell viability by MTS assay (FIG. 13) (SK-HEP-1 cells [2]; compound conc. 312.5, 24 hours): 2.306 and 2.204 and 2.138
Cell viability by MTS assay (FIG. 13) (SK-HEP-1 cells [2]; compound conc. 625, 24 hours): 2.197 and 1.912 and 1.787
Cell viability by MTS assay (FIG. 13) (SK-HEP-1 cells [2]; compound conc. 1250, 24 hours): 1.973 and 1.846 and 1.71
Cell viability by MTS assay (FIG. 13) (SK-HEP-1 cells [2]; compound conc. 2500, 24 hours): 1.775 and 1.81 and 1.896
Cell viability by MTS assay (FIG. 13) (SK-HEP-1 cells [2]; compound conc. 5000, 24 hours): 1.728 and 1.67 and 1.623
Cell viability by MTS assay (FIG. 13) (SK-HEP-1 cells [2]; compound conc. 10000, 24 hours): 1.322 and 1.342 and 1.366
Cell death compared with NACCbl (SK-HEP-1 cells [2]; above 0.2 mM concentration): caused greater cell death than NACCbl
Hsp32 gene expression (Hsp32): induce Hsp32
Concentration required for >80% survival protection (SK-HEP-1 cells [3]; 2 hours, then 30 μM homocysteine 24 hours): 50 µM
Protection against homocysteine-induced damage compared with free thiols (SK-HEP-1 cells [3]; Hcy 30 μM, NAC 45 μM, GSH 100 μM, NACCbl 12.5 μM, GSCbl 15 μM): superior to the free thiols
Mean (FIG. 14a, protection of SK-HEP-1 cells from Hcy in the presence of folate) (SK-HEP-1 cells [3]; [Hcy] 30 μM, folate 25 μM present, [GSCbl] = 15 μM, [NACCbl] = 12.5 μM, [CNCbl] = 15 μM, [MeCbl] = 12.5 μM, [HOCbl] = 17.5 μM, [NAC] = 45 μM, [GSH] = 100 μM): 2.524
Survival (SK-HEP-1 cells [3]; compound 30 μM, 50 μM homocysteine): ~60%
Protection from homocysteine-induced cell death (SK-HEP-1 cells [3]; pre-incubation 30 μM two hours, variable homocysteine two hours): protected cells from homocysteine-induced cell death
t1/2 [4]: No decomposition within 20 hours
Difference between protection by NACCbl and by GSCbl (SK-HEP-1 cells [5]; 25 μM H2O2 24 hours): no difference
Concentration required to achieve >80% survival (SK-HEP-1 cells [5]; 2 hours, then 25 μM H2O2 24 hours): 100 µM
Protection from H2O2 (SK-HEP-1 cells [5]; GSCbl 30 μM, above 7.5 μM H2O2): did not provide significant protection
Cell viability (MTS assay) (SK-HEP-1 cells [5]; compound 30 μM two hours, then H2O2 200 μM a further two hours): 1.326 and 7.153 and 3.6 and 1.942 and 5.921 and 0.7579
Cell viability (MTS assay) (SK-HEP-1 cells [5]; compound concentration 6.25, 2 hours, then 25 μM H2O2 24 hours): 48.68 and 56.26 and 45.98 and 43.35 and 42.09 and 41.96
Cell viability (MTS assay) (SK-HEP-1 cells [5]; compound concentration 12.5, 2 hours, then 25 μM H2O2 24 hours): 44.27 and 54.35 and 50.53 and 47.04 and 44.14 and 42.09
Cell viability (MTS assay) (SK-HEP-1 cells [5]; compound concentration 25, 2 hours, then 25 μM H2O2 24 hours): 41.24 and 45.5863 and 42.23 and 45.26 and 41.7 and 44.99
Cell viability (MTS assay) (SK-HEP-1 cells [5]; compound concentration 100, 2 hours, then 25 μM H2O2 24 hours): 64.62 (2×) and 77.87 and 71.61 and 72.6 and 76.5481
Cell viability (MTS assay) (SK-HEP-1 cells [5]; compound concentration 200, 2 hours, then 25 μM H2O2 24 hours): 94.07 and 100.0659 and 102.8327 and 93.87 and 105.5995 and 94.73
Cell viability (MTS assay) (SK-HEP-1 cells [6]; compound 30 μM two hours, then H2O2 0 μM): 99.24 and 102.2264 and 105.5898 and 103.6002 and 104.0265 and 104.5476
Cell viability (MTS assay) (SK-HEP-1 cells [6]; compound 30 μM two hours, then H2O2 0.781 μM a further two hours): 96.12 and 98.39 and 97.3946 and 98.0578 and 96.02 and 95.31
Cell viability (MTS assay) (SK-HEP-1 cells [6]; compound 30 μM two hours, then H2O2 1.56 μM a further two hours): 93.56 and 90.81 (2×) and 92.33 and 88.25 and 91.8522
Cell viability (MTS assay) (SK-HEP-1 cells [6]; compound 30 μM two hours, then H2O2 3.125 μM a further two hours): 40.31 and 91.33 and 87.3046 and 82.33 and 79.77 and 77.59
Cell viability (MTS assay) (SK-HEP-1 cells [6]; compound 30 μM two hours, then H2O2 6.25 μM a further two hours): 36.52 and 39.7442 and 34.49 and 34.72 and 34.86 and 36.1
Cell viability (MTS assay) (SK-HEP-1 cells [6]; compound 30 μM two hours, then H2O2 12.5 μM a further two hours): 29.7963 and 32.02 and 36.1 and 32.4 and 29.99 and 33.92
Cell viability (MTS assay) (SK-HEP-1 cells [6]; compound 30 μM two hours, then H2O2 25 μM a further two hours): 23.54 and 26.53 and 22.93 and 24.44 and 22.03 and 20.42
Cell viability (MTS assay) (SK-HEP-1 cells [6]; compound 30 μM two hours, then H2O2 50 μM a further two hours): 15.02 and 20.8432 and 18.95 and 13.12 and 15.6324 and 17.62
Cell viability (MTS assay) (SK-HEP-1 cells [6]; compound 30 μM two hours, then H2O2 100 μM a further two hours): 10.8 and 12.36 and 11.5585 and 9.995 and 6.679 and 8.527
Cell viability (MTS assay) (SK-HEP-1 cells [6]; compound concentration 3.125, 2 hours, then 25 μM H2O2 24 hours): 20.88 and 30.9 and 21.34 and 26.8116
Cell viability (MTS assay) (SK-HEP-1 cells [6]; compound concentration 50, 2 hours, then 25 μM H2O2 24 hours): 42.69 and 45.72 and 48.16 and 46.9 and 46.77 and 51.84

OO [H2O2, Hydrogen peroxide]
Concentration achieving greater than 90% death (<10% survival) (SK-HEP-1 cells [7]; SK-HEP-1, 2 hours): 12.5 µM
Concentration sufficient to kill cultured endothelial cells (SK-HEP-1 cells [7]; SK-HEP-1, 2 hours, P<0.001): ≥ 3 μm
Cell viability (MTS assay) (SK-HEP-1 cells [7]; 0.781 μM): 102.4429 and 98.07 and 98.74 and 102.3076 and 99.02
Cell viability (MTS assay) (SK-HEP-1 cells [7]; 1.562 μM): 96.08 and 96.67 and 98.97 and 85.98
Cell viability (MTS assay) (SK-HEP-1 cells [7]; 3.125 μM): 46.88 and 52.02 and 50.62 and 52.38 and 82.7345 and 84.54
Cell viability (MTS assay) (SK-HEP-1 cells [7]; 6.25 μM): 33.89 and 32.31 and 35.2 and 32.54 and 30.46
Cell viability (MTS assay) (SK-HEP-1 cells [7]; 25 μM): 3.63 (2×) and 3.225 and 3.27 and 3.585
Cell viability (MTS assay) (SK-HEP-1 cells [7]; 50 μM): 0.4284 and 0.06765 and 0.4735
viability (SK-HEP-1 cells [8]): 11.3% and 10.1% and 11.8% and 11.7% and 12.4%
viability at 2 h, 0.781 µM (in vitro): 99.4%
viability at 2 h, 1.562 µM (in vitro): 96.4%
viability at 2 h, 6.25 µM (in vitro): 32.6%
viability at 2 h, 12.5 µM (in vitro): 12.4%
viability at 2 h, 25 µM (in vitro): 3.18%
